# Results taken from patent publication US20130252983A1, “ACTIVATING PHOSPHORYLATION SITE ON GLUTAMINASE C” (CORNELL UNIVERSITY, priority 2010, published 2013).
# “Also recorded” adds a separate entry of the source.
# Key:
# GAC phosphorylation = target: T1, GAC phosphorylation (Mus musculus, UniProt D3Z7P3); experiment: 2-D gel analysis of V5-GAC phosphorylation states from treated Dbl cells; type: cell-based; conditions: 48 hours
# T1 construct: expressed in transfected cells; host or cells: NIH 3T3 cells (stably expressing Dbl, or parental), transient transfection
# T1 sequence (D3Z7P3 55-603 isoform D3Z7P3-2 limits assumed): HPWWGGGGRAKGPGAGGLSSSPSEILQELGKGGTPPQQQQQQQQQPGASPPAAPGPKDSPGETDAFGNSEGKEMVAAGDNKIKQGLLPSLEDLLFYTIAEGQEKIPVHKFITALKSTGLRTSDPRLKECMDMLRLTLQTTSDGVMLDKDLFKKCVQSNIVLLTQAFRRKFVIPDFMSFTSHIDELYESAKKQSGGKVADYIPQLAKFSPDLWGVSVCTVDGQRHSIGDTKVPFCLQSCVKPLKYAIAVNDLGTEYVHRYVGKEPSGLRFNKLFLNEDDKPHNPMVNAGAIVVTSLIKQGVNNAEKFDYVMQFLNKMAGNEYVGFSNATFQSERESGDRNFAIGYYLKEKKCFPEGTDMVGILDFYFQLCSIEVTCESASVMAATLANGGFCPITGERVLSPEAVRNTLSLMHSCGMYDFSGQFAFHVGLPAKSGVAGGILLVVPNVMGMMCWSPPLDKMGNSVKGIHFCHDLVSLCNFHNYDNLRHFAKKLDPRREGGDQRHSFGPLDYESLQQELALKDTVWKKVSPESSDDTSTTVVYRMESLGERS
# Experimental: NIH 3T3 cells stably expressing the Dbl oncogene, were transiently transfected with DNA encoding a VS-tagged GAC, and then one sample was treated with 968 (10 μM) for 48 hours. The cells were then harvested and the ectopically expressed GAC was isolated by immunoprecipitation via the V5 tag. The samples were then subjected to 2-D gel analysis to separate the V5-GAC by charge and size, and the V5-tagged GAC was visualized by Western blotting using an anti-V5 antibody.
# GAC runs distinctly on a 2D gel depending whether it is expressed in normal (untransformed) NIH 3T3 cells or in NIH 3T3 cells which are transformed by the Dbl oncogene. Specifically, there is one major species of GAC present in NIH 3T3 cells whereas in Dbl cells, two additional species of GAC appear which migrate with a more negative charge but at the same molecular mass as the original species (FIG. 21, first and second panels). […] Additionally, it has been shown that small molecules of the 968 family which are able to inhibit GAC in vivo do so by blocking the ability of GAC to become phosphorylated. Thus, it was of great interest to identify the amino acid(s) on GAC whose phosphorylation is causal in the activation of this enzyme.
# [1] = test system: GA activity of SKBR3 cells; experiment: GA activity in mitochondrial fractions of treated SKBR3 cells; type: cell-based, human; conditions: 2 μM
# Experimental: (§1) 100%=620 moles of glutamine hydrolyzed per minute per mole of enzyme. Data represent the average of 3 experiments (±s.d.). […] Following precipitation of the beads and re-suspension, the samples were analyzed by Western blotting with anti-V5 antibody. […] Data represent the average of 3 experiments (±s.d.). […] Data represent the average of 3 experiments (±s.d.). […] Data represent the average of 3 experiments (±s.d.). FIG. 3E NIH 3T3 cells transiently expressing Dbl were assayed for focus formation in the presence of 10 μM 968 alone or together with 7 mM dimethyl α-ketoglutarate. […] 100%=680 nM glutamine hydrolyzed per minute per 10^5 cells. Data are the average of 3 experiments (±s.d.). […] 100%=750 nM glutamine hydrolyzed per minute per 10^5 cells. Data represent the average of 3 experiments (±s.d.).
# (§2) FIGS. 4A-E illustrate the role of glutaminase C activity in cellular transformation. […] Data represent the average of 3 experiments (±s.d.). […] Data represent the average of 3 experiments (±s.d.). […] 100% represents the activity measured in untreated Dbl-transformed cells. The data represent the average of 2 experiments. […] 100% represents the activity measured in untreated SKBR3 cells. The data represent the average of 2 experiments. […] Data represent the average of 3 experiments (±s.d.).
# FIGS. 11A-E illustrate the effects of different treatments on GA activity. […] The addition of Pi stimulated the GA activity in control 3T3 cells, Dbl-expressing cells, and Cdc42(F28L)-expressing cells by ˜6-fold, 2-fold, and 3-fold, respectively. 100% represents the Pi-stimulated activity measured for Dbl-transformed cells that were not treated with 968. Data is the average of 3 experiments (±s.d.). […] The addition of Pi stimulated the GA activity of HMECs, MDA-MB231 cells, and SKBR3 cells by ˜5-fold, 2-fold, and 1.4-fold, respectively. […] The data are plotted as the percentage of GA activity measured for untreated SKBR3 cells and represent the average of 2 experiments. […] 100% represents the Pi-stimulated activity measured for untreated Dbl-transformed cells. […]
# [2] = target: T2, GA activity of NIH 3T3 cells stably expressing Dbl or Cdc42(F28L) (Mus musculus, UniProt D3Z7P3); experiment: GA activity in mitochondrial fractions of treated transformed NIH 3T3 cells; type: cell-based
# T2 construct: endogenous in cells; host or cells: NIH 3T3 cells stably expressing Dbl or Cdc42(F28L); mitochondrial fraction
# T2 sequence (D3Z7P3 55-603 isoform D3Z7P3-2): T1 sequence (D3Z7P3 55-603 isoform D3Z7P3-2 limits assumed)
# Experimental: as §1, §2
# FIGS. 11A-E illustrate the effects of different treatments on GA activity. […] The addition of Pi stimulated the GA activity in control 3T3 cells, Dbl-expressing cells, and Cdc42(F28L)-expressing cells by ˜6-fold, 2-fold, and 3-fold, respectively. 100% represents the Pi-stimulated activity measured for Dbl-transformed cells that were not treated with 968. Data is the average of 3 experiments (±s.d.). […] The addition of Pi stimulated the GA activity of HMECs, MDA-MB231 cells, and SKBR3 cells by ˜5-fold, 2-fold, and 1.4-fold, respectively. 100% represents the Pi-stimulated activity for SKBR3 cells that were not treated with 968. Data are the average of 3 experiments (±s.d.). […] Mitochondrial fractions were prepared from equal numbers of cells and assayed for GA activity in the presence or absence of 133 mM Pi. The data are plotted as the percentage of GA activity measured for untreated SKBR3 cells and represent the average of 2 experiments. […] 100% represents the Pi-stimulated activity measured for untreated Dbl-transformed cells. The data represent the average of 2 experiments. […] 100% represents the Pi-stimulated activity for untreated SKBR3 cells. The data represent the average of 2 experiments.
# Dbl expressing NIH 3T3 cells were treated for 48 hours in the presence or absence of 968 (10 μM), Bay 11-7082 (2 μM) or Rapamycin (100 nM). Mitochondria were then isolated from the treated cells and assayed for glutaminase activity in the absence or presence of phosphate.
# Mitochondrial preparations were obtained using the mitochondria isolation kit from QIAGEN (Cat #37612). A suspension containing 2×10^7 cells was transferred into a 50 ml conical tube and centrifuged at 500×g for 10 minutes at 4° C. The pellets were resuspended in 2 ml of ice-cold lysis buffer (supplied by QIAGEN) and incubated for 10 minutes at 4° C. using an end-over-end shaker. The lysates were centrifuged at 1000×g for 10 minutes at 4° C., and the pellets were resuspended in a buffer supplied by the manufacturer and disrupted completely by using a blunt-ended, 23-gauge needle and a syringe, followed by centrifugation at 6000×g for 20 minutes at 4° C. […]
# [3] = test system: NIH 3T3 cells expressing oncogenic Dbl; experiment: Dbl-induced cellular transformation (focus formation, growth in low serum, soft agar); type: cell-based, mouse; conditions: focus formation / growth in low serum
# Experimental: FIGS. 1A-E illustrate that the small molecule 968 inhibits cellular transformation. […] Cells were fixed and stained with crystal violet for counting of foci. Right: 968 was serially diluted (10, 5, 2.5, and 1.25 μM) and evaluated for its ability to inhibit focus formation. […] After 6 days, the cells were counted. 100% represents the number of Dbl-transformed cells counted in the absence of 968 (27.5×10^4 cells). Data represent the average of 3 experiments (±s.d.). […] At the indicated times, the cells were counted. Data represent the average of 3 experiments (±s.d.).
# FIGS. 2A-G illustrate effects of 968 on the transforming activity of constitutively active Rho GTPases and human breast cancer cells. […] Cells were scored after 14 days and plotted as the percentage of the total number of colonies greater than 50 μm in diameter. Data represent the average of 3 experiments (±s.d.). […] Data represent the average of 3 experiments (±s.d.). […] Data represent the average of 3 experiments (±s.d.). […] After 24 hours at 37° C., the migratory cells were fixed, stained with GIEMSA, and counted. Data represent the average of 3 experiments (±s.d.). […] Data represent the average of 3 experiments (±s.d.). […] Data represent the average of 3 experiments (±s.d.). […] Data represent the average of 3 experiments (±s.d.).
# FIGS. 5A-C illustrate comparative abilities of 968 and other benzo[a]phenanthridinones to inhibit the transforming activity of oncogenic Dbl and H-Ras. […] Histograms show the relative levels of Dbl-induced focus formation for the different treatments, compared to Dbl-induced focus formation measured in the presence of DMSO (i.e. solvent control). Data represent the average of 3 experiments (mean±s.d.). […] Histograms show the relative levels of Ras(G12V)-induced focus formation measured for the different treatments, compared to Ras(G12V)-induced focus formation measured in the presence of DMSO (solvent control). Data represent the average of 3 experiments (mean±s.d.). FIG. 5C NIH 3T3 cells stably expressing H-Ras(G12V) that were cultured in DMEM supplemented with 1% calf serum, with the indicated amounts of 968. After 6 days, cells are trypsinized and counted. 100% represents the number of cells counted in the absence of 968, i.e. 26×10^4 cells. Data represent the average of 3 experiments (mean±s.d.).
# [4] = target: T3, mouse GAC (E. coli-expressed mouse ortholog of human GAC) (Mus musculus, UniProt D3Z7P3); experiment: Recombinant glutaminase activity assay; type: biochemical
# T3 construct: A plasmid encoding mouse GAC (residues 128-603) was cloned into the pET28a vector; His (N, cleaved yes); made in house; host or cells: E. coli (pET28a)
# T3 sequence (D3Z7P3 128-603 isoform D3Z7P3-2): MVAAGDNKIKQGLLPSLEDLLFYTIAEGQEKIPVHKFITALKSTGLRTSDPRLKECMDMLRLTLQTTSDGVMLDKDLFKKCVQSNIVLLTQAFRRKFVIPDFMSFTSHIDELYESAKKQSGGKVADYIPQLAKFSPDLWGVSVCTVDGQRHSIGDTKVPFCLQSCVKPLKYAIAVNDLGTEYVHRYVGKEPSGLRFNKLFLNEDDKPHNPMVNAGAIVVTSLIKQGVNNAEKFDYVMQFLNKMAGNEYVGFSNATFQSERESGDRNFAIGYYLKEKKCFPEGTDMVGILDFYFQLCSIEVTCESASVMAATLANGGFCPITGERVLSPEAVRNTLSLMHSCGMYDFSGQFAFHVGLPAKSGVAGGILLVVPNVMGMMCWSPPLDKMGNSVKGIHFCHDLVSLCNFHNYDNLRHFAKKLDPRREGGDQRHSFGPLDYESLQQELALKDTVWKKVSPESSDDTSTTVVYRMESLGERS
# Experimental: as §1
# The activity of the E. coli-expressed recombinant mouse ortholog of human GAC were assayed in the presence of 0 ([…]), 10 (∇) or 20 (▪) μM 968 and inorganic phosphate in the form of dipotassium hydrogen phosphate. […] The data are plotted as GA activity as function of varying concentrations of glutamine or inorganic phosphate. The data are the average of 3 experiments and are plotted as mean±SEM.
# Glutaminase activity assays were performed on recombinant enzyme as previously described (Kenny et al., “Bacterial Expression, Purification and Characterization of Rat Kidney-Type Mitochondrial Glutaminase,” Protein Expr. Purif. 31:140-148 (2003), which is hereby incorporated by reference in its entirety). A plasmid encoding mouse GAC (residues 128-603) was cloned into the pET28a vector and the protein was expressed with an N-terminal histidine (His)-tag. The tag was cleaved using thrombin and the protein was further purified by anion-exchange and gel-filtration chromatography. […] The reaction mixture was incubated at room temperature for 45 minutes and the absorbance at 340 nm was recorded for each sample against a water blank. The absorbance of the sample with just the cocktail mixture was subtracted from each reading to calculate the activity of the enzyme.
SMILES,most negative migrating major species of GAC on 2D gel (GAC phosphorylation),basal (phosphate-independent) GA activity [1],direct stimulation of the enzyme by phosphate (Pi-stimulated GA activity) [1],"mitochondrial glutaminase activity ([2]; Dbl expressing NIH 3T3 cells, 48 hours, Bay 11-7082 (2 μM), Rapamycin (100 nM))","direct stimulation of the enzyme by phosphate (Pi-stimulated GA activity) ([2]; Dbl-transformed cells, 2 μM)","basal (phosphate-independent) GA activity ([2]; Dbl-transformed cells, 2 μM, 2 days)",blocking of Dbl-induced transformation [3],inhibition of enzymatic activity of purified mouse GAC [4]
"CC(C)(C)c1ccc(S(=O)(=O)/C=C/C#N)cc1 [BAY 11-7082, E3((4-t-butylphenyl)-sulfonyl)-2-propenenitrile]",loss of the most negative migrating major species of GAC,significantly reduces their basal GA activity,little or no effect,significant loss of glutaminase activity,little or no effect,significantly reduces their basal GA activity,–,–
CC1(C)CC(=O)C2=C(C1)c1c(ccc3ccccc13)NC2c1cccc(Br)c1 (centres unmarked) [Compound 335],–,–,–,–,–,–,little or no inhibition; also recorded: less effective at blocking Dbl-transformation,little ability to inhibit enzyme activity
